In brackets after ≈: the same amount, converted by molar mass. Like-named read-outs stand apart in the source and are kept apart here.
Experiments:
[1] = system: intracellular M. tuberculosis H37Rv; assay: Intracellular activity assay in infected THP-1 cells (CFU); type: cell-based; conditions: 3 days; for Log10CFU: infected THP-1 cells, mean ± SD, untreated 5.03 ± 0.12
PknF = PknF (Mycobacterium tuberculosis, UniProt P9WI75); assay: In vitro protein kinase assay (Kinase Glo), auto-phosphorylation of PknF; type: biochemical, M. tuberculosis
PknG = PknG (Mycobacterium tuberculosis, UniProt P9WI73); assay: In vitro protein kinase assay (Kinase Glo), auto-phosphorylation of PknG; type: biochemical, M. tuberculosis
[2] = cited from earlier work
human kinase Akt1 = human kinase Akt1 (Homo sapiens, UniProt P31749); assay: In vitro protein kinase assay (Kinase Glo), auto-phosphorylation of Akt1; type: biochemical
in vitro = conditions: human
[3] = system: M. tuberculosis gene transcripts (PknB/SigH regulatory pathways); assay: Gene expression by microarray; type: cell-based; conditions: 4 h; for fold induction at 2.5 µg/mL: Mycobacterium tuberculosis; for Regulation: 2.5 μg/ml
Protocol: The drug-treated (2.5 μg/ml IMB-YH-8), together with control (DMSO) mycobacterial cultures, were incubated at 37 °C for 4 h. Total RNAs were isolated by RiboPure^TM-Bacteria Kit (Life Technology, AM1925) according to the manufacturer’s instructions. The quantity and quality of each RNA sample was determined using NanoDrop ND-2000 spectrophotometer (Thermo Scientific, Wilmington, DE) and Agilent 2100 Bioanalyzer (Agilent Technologies, Santa Clara, CA).
The qualified RNA samples were labeled and hybridized on Agilent 4 × 44 K Custom design Gene Expression Microarray according to manufacturer protocol (Agilent, Santa Clara, CA). In brief, 100 ng of each RNA sample was amplified to cRNA and labeled with Cy-3 using Agilent Low Input Quick Amp Labeling Kit. The labeled samples were hybridized for 16 hours at 10 rotations per minute. After hybridization, the arrays were washed and scanned by Agilent scanner and then the image was analyzed by Agilent Feature Extraction v11.5. Data obtained from Feature Extraction were imported to GeneSpring GX version 13.1 (Agilent Technologies, Santa Clara, CA) for 75th percentile shift and baseline to median of all samples normalization.

Mycobacterium marinum = system: Mycobacterium marinum; set-up: method as in earlier work; conditions: previous high throughput screening study; cited from earlier work
[4] = system: M. tuberculosis H37Rv gene transcripts (PknB/SigH regulatory pathways); type: cell-based; conditions: 2.5 μg/ml, 4 h; for Real-time reverse transcription PCR Normalized ΔCt (mean ± SD): normalized to sigA mRNA
PknB [5] = molecular target: T1, PknB (Mycobacterium tuberculosis, UniProt P9WI81); assay: In vitro protein kinase assay (Kinase Glo), auto-phosphorylation of PknB; type: biochemical, M. tuberculosis; conditions: non-radioactive Kinase Glo assay, 100 μM ATP
T1 sequence (P9WI81 11-274 limits assumed): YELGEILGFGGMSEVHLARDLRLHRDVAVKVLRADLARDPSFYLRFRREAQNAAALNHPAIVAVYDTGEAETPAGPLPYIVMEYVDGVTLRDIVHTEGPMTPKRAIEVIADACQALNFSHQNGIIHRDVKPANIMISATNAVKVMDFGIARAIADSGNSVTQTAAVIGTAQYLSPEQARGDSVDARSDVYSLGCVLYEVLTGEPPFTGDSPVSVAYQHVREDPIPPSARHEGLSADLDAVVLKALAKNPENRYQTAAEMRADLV

[6] = system: clinical isolates of M. tuberculosis; assay: microbe, parasite or virus in culture; type: cell-based; conditions: Mycobacterium tuberculosis, clinical isolate 31251, sensitive
M. tuberculosis H37Rv [7] = assay: MIC by microplate Alamar blue assay (MABA), H37Rv; type: cell-based; conditions: Mycobacterium tuberculosis
PknH = PknH (Mycobacterium tuberculosis, UniProt P9WI71); assay: In vitro protein kinase assay (Kinase Glo), auto-phosphorylation of PknH; type: biochemical
THP-1 cells = conditions: calculated as the CC50/MIC (THP-1 / H37Rv)
PknA = molecular target: T2, PknA (Mycobacterium tuberculosis, UniProt P9WI83); assay: In vitro protein kinase assay (Kinase Glo), auto-phosphorylation of PknA; type: biochemical, M. tuberculosis
T2 sequence (P9WI83 1-431): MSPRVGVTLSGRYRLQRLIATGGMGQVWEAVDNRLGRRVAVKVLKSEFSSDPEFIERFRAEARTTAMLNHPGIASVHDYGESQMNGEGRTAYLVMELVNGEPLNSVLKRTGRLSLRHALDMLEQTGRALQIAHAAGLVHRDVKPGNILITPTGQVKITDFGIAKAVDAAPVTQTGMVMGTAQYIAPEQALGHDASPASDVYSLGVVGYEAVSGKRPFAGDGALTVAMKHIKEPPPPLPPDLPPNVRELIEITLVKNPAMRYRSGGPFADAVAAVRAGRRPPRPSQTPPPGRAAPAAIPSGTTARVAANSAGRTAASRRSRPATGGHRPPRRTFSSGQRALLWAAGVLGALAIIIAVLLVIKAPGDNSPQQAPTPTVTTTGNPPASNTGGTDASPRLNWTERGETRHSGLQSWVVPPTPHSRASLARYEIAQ

M. tuberculosis H37Rv [8] = assay: Scanning electron microscopy of cell morphology; type: cell-based; conditions: 1 μg/ml for 5 days, SEM
Protocol: To determine whether IMB-YH-8 affects the morphology of M. tuberculosis H37Rv, scanning electron microscopy (SEM) was performed. H37Rv was grown to early log phase (optical density at 600 nm, ~0.2). Then 1 μg/ml IMB-YH-8 was added to treat cells, followed by incubation at 37 °C for 5 days. Cells were harvested by low-speed centrifugation and washed in 0.1 M phosphate buffer (pH 7.4). The cells were then fixed in 0.1 M phosphate buffer (pH 7.4) containing 2.5% glutaraldehyde and 0.5% paraformaldehyde. The samples were submitted to the Instrument Center of Institute of Microbiology, Chinese Academy of Sciences for further analysis. Observations were carried out using a SEM (SU8010; Hitachi, Tokyo, Japan). Untreated H37Rv were also processed as control.

PknB [9] = molecular target: T1, PknB; assay: Phosphorylation of GarA by PknB, Phos-tag SDS-PAGE; type: biochemical, M. tuberculosis; conditions: non-phosphorylated GarA increased in a dose-dependent manner
Protocol: In vitro phosphorylation of GarA (5 μM) by PknB (3 μM) was carried out in 50 μl reaction mixture (25 mM Tris-HCl (pH = 7.4), 5 mM MgCl2, 2 mM MnCl2). The reaction was initiated with the additional of 100 μM ATP and incubated at 37 °C for 3 hours. The reaction was terminated with the addition of SDS-PAGE sample buffer and heating the mixture at 100 °C for 5 min. The reaction mixtures were analyzed by 12% SDS-PAGE with or without Phos-tag SDS-PAGE to differentiate the phosphorylated and non-phosphorylated GarA. Phos-tag SDS-PAGE was performed with gel containing 20 μM Phos-tag acrylamide (Wako Pure Chemical Industries, Japan) and 100 µM MnCl2 according to the manufacturer’s instructions. Electrophoresis was performed at 4 °C in Tris-glycine SDS-PAGE running buffer at 30 mA for 2 h. Images were adjusted for contrast and brightness using Bio-Rad image lab software version 2.01.

PknB [10] = molecular target: PknB (Mycobacterium tuberculosis, UniProt P9WI81); assay: biochemical; type: binding, M. tuberculosis
Target sequence in this assay (P9WI81 1-279 limits assumed): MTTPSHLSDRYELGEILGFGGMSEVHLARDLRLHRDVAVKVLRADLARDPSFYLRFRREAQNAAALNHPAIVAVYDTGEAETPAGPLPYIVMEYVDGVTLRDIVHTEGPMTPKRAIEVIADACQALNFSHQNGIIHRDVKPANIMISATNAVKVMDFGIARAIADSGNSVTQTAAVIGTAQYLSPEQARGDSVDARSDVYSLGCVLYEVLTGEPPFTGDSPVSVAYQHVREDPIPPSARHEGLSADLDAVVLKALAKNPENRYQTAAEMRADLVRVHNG

Mycobacterium smegmatis = system: Mycobacterium smegmatis; set-up: method as in earlier work; conditions: previous high throughput screening study; cited from earlier work
PknB [11] = molecular target: T1, PknB; assay: Surface plasmon resonance (BIAcore) binding to PknB; set-up: species or system M. tuberculosis; conditions: single cycle kinetics, 1:1 binding model, 25 °C, read-out: Kd for binding to PknB (SPR)

human kinase Akt1, sequence (P31749 whole entry): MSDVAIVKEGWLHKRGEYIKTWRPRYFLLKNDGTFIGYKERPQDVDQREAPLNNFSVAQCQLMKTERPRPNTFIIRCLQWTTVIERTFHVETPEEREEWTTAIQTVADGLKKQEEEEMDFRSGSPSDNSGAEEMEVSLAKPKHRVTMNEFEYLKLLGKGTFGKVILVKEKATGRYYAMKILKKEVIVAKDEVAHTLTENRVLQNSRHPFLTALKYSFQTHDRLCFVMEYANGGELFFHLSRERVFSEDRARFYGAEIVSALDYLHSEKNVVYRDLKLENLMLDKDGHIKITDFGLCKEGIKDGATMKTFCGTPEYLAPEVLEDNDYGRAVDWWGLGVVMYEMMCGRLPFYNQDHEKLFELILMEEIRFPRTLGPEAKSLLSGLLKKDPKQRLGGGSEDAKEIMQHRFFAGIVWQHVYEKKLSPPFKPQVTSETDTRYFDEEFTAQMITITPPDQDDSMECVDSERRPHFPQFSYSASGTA
PknF, sequence (P9WI75 whole entry): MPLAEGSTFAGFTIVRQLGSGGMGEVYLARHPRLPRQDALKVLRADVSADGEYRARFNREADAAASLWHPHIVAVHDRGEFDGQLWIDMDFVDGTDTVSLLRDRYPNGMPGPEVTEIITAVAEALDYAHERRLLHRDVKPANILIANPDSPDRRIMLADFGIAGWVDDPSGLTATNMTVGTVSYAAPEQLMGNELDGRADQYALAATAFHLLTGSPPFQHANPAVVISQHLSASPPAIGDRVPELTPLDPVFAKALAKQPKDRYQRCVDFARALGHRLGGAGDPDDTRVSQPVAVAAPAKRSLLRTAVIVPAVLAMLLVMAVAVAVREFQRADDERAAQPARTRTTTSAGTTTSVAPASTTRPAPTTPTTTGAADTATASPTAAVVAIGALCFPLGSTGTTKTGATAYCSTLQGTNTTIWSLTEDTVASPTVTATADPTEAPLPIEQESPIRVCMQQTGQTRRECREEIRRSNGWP
PknH, sequence (P9WI71 whole entry): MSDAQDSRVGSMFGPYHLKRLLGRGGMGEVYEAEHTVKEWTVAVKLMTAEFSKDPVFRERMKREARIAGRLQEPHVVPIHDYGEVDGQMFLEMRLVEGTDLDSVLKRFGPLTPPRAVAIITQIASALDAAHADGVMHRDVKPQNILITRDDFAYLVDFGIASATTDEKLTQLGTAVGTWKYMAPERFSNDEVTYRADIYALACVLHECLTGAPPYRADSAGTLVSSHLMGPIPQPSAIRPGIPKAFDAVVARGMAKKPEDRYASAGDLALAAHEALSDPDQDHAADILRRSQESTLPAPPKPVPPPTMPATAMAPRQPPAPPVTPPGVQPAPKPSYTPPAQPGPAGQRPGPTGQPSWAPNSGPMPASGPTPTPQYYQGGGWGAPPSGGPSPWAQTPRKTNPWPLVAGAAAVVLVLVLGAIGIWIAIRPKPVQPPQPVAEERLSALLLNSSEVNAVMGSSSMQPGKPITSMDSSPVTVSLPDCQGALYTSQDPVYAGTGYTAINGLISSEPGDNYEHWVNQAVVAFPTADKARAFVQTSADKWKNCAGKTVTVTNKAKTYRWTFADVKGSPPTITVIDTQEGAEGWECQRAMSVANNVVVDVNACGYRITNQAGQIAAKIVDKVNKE
PknG, sequence (P9WI73 whole entry): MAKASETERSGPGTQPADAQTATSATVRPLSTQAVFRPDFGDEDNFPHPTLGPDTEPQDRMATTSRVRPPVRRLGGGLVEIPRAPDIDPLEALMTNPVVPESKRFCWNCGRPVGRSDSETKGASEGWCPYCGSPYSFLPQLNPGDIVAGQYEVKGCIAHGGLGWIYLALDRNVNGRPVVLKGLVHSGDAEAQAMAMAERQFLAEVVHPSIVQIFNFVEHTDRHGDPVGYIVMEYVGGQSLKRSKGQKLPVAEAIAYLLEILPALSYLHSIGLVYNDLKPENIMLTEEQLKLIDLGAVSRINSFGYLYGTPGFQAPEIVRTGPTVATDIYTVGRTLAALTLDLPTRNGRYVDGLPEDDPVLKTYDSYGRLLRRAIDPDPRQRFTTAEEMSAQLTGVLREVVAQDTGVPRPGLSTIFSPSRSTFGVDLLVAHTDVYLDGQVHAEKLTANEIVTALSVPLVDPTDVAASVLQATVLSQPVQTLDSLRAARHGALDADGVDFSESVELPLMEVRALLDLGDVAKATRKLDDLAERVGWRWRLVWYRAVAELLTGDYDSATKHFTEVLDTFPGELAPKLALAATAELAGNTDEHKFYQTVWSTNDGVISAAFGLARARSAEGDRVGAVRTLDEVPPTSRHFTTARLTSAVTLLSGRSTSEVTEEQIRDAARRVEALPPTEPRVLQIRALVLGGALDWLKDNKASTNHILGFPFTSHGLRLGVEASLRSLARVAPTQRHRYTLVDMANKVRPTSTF

Compound: NNC(=O)c1ccncc1 [INH, isoniazid, reference compound]
- Log10CFU ([1]; 0.5 μg/ml): 3.24 ± 0.05
- Log10CFU ([1]; 1 μg/ml): 3.14 ± 0.06
- Log10CFU ([1]; 2 μg/ml): 2.57 ± 0.14

Compound: COC(=O)/C=C/C(=O)c1ccc(OC)cc1 [IMB-YH-8]
- IC50 (PknF): 503 µM
- IC50 (PknG): 349 µM
- time until serum concentrations fall below the therapeutic range ([2]; oral delivery of 200 mg/kg): less than 1 hour
- serum Cmax ([2]; rat, in vivo, po, 200 mg/kg): sub-microgram/ml
- IC50 (human kinase Akt1): > 640 µM
- CC50 at 48 h (in vitro): 7.61 µg/mL (≈ 34.6 µM)
- reduction in CFU compared to untreated control ([1]; 0.5 µg/ml): 0.18 log10
- Log10CFU ([1]; 0.5 μg/ml): 4.85 ± 0.04
- reduction in CFU compared to untreated control ([1]; 1 µg/ml): 0.62 log10
- Log10CFU ([1]; 1 μg/ml): 4.41 ± 0.12
- reduction in CFU compared to untreated control ([1]; 2 µg/ml): 1.11 log10
- Log10CFU ([1]; 2 μg/ml): 3.92 ± 0.11
- fold induction at 2.5 µg/mL ([3]; read-out: Fold induction in microarray (mean ± SD), gene Rv2466c, 2.5 μg/ml): 6.86 ± 1.93
- fold induction at 2.5 µg/mL ([3]; read-out: Fold induction in microarray (mean ± SD), gene rshA (Rv3221A), 2.5 μg/ml): 6.07 ± 0.33
- fold induction at 2.5 µg/mL ([3]; read-out: Fold induction in microarray (mean ± SD), gene sigH (Rv3223c), 2.5 μg/ml): 2.92 ± 0.09
- fold induction at 2.5 µg/mL ([3]; read-out: Fold induction in microarray (mean ± SD), gene trxB2 (Rv3913), 2.5 μg/ml): 6.9 ± 0.75
- fold induction at 2.5 µg/mL ([3]; read-out: Fold induction in microarray (mean ± SD), gene trxC (Rv3914), 2.5 μg/ml): 8.03 ± 0.33
- Regulation ([3]; gene Rv2466c): Up
- Regulation ([3]; gene rshA (Rv3221A)): Up
- Regulation ([3]; gene sigH (Rv3223c)): Up
- Regulation ([3]; gene trxB2 (Rv3913)): Up
- Regulation ([3]; gene trxC (Rv3914)): Up
- inhibition of Mycobacterium marinum (Mycobacterium marinum): inhibited
- Real-time reverse transcription PCR Normalized ΔCt (mean ± SD) ([4]; gene Rv2466c): 6.325 ± 2.51
- Real-time reverse transcription PCR Mean fold change (2^ΔΔCt Value) ([4]; gene rshA (Rv3221A)): 264.11
- Real-time reverse transcription PCR Normalized ΔCt (mean ± SD) ([4]; gene rshA (Rv3221A)): 8.045 ± 0.59
- Real-time reverse transcription PCR Mean fold change (2^ΔΔCt Value) ([4]; gene sigH (Rv3223c)): 5.88
- Real-time reverse transcription PCR Normalized ΔCt (mean ± SD) ([4]; gene sigH (Rv3223c)): 2.555 ± 0.11
- Real-time reverse transcription PCR Mean fold change (2^ΔΔCt Value) ([4]; gene trxB2 (Rv3913)): 7.67
- Real-time reverse transcription PCR Normalized ΔCt (mean ± SD) ([4]; gene trxB2 (Rv3913)): 2.940 ± 0.07
- Real-time reverse transcription PCR Mean fold change (2^ΔΔCt Value) ([4]; gene trxC (Rv3914)): 5.48
- Real-time reverse transcription PCR Normalized ΔCt (mean ± SD) ([4]; gene trxC (Rv3914)): 2.455 ± 0.06
- IC50 (PknB [5]): 20.2 µM
- MIC [6]: 0.25 µg/mL (≈ 1.14 µM)
- MIC (M. tuberculosis H37Rv [7]): 0.25 µg/mL
- MIC (M. tuberculosis H37Rv [7]; converted from 0.25 μg/ml): 1.14 µM
- IC50 (PknH): > 640 µM
- SI, selectivity index (THP-1 cells): 30.4
- IC50 (PknA): 44.3 µM
- proportion of ruptured cells (M. tuberculosis H37Rv [8]): 61.5%
- PknB-catalyzed phosphorylation of GarA (PknB [9]): inhibited
- Kd (PknB [10]): 13.5 µM
- ΔG of binding to PknB (PknB [10]; ITC, 25 °C): -6.64 kcal/mol
- ΔH of binding to PknB (PknB [10]; ITC, 25 °C): -5.7 kcal/mol
- −TΔS of binding to PknB (PknB [10]; ITC, 25 °C): -0.94 kcal/mol
- inhibition of Mycobacterium smegmatis (Mycobacterium smegmatis): inhibited
- Kd (PknB [11]): 25.3 µM

Source: publication PMC5506005, “A novel protein kinase inhibitor IMB-YH-8 with anti-tuberculosis activity” (Scientific Reports, 2017)
